# Patent publication US9278925B2, “Substituted 3-(biphenyl-3-yl)-4-hydroxy-8-methoxy-1-azaspiro[4.5]dec-3-en-2-one” (BAYER INTELLECTUAL PROPERTY GMBH, priority 2011, dated 2016)
# pIC50: −log10 of the molar value. Several values for one entry are separate records, joined by “and”; a condition that tells them apart may be missing. Identical values can stand only once. Like-named read-outs stand apart in the source and are kept apart here.
# Target: human ACC2 (Homo sapiens (Human), UniProt O00763)
# Experiment: Human ACC2 enzyme assay (ADP-Glo)
# Conditions: read-out: ACC 2 IC50, individual measurement (measurement no./preparation no. in table)
# Chain of human ACC2 (O00763 27-2458 limits assumed): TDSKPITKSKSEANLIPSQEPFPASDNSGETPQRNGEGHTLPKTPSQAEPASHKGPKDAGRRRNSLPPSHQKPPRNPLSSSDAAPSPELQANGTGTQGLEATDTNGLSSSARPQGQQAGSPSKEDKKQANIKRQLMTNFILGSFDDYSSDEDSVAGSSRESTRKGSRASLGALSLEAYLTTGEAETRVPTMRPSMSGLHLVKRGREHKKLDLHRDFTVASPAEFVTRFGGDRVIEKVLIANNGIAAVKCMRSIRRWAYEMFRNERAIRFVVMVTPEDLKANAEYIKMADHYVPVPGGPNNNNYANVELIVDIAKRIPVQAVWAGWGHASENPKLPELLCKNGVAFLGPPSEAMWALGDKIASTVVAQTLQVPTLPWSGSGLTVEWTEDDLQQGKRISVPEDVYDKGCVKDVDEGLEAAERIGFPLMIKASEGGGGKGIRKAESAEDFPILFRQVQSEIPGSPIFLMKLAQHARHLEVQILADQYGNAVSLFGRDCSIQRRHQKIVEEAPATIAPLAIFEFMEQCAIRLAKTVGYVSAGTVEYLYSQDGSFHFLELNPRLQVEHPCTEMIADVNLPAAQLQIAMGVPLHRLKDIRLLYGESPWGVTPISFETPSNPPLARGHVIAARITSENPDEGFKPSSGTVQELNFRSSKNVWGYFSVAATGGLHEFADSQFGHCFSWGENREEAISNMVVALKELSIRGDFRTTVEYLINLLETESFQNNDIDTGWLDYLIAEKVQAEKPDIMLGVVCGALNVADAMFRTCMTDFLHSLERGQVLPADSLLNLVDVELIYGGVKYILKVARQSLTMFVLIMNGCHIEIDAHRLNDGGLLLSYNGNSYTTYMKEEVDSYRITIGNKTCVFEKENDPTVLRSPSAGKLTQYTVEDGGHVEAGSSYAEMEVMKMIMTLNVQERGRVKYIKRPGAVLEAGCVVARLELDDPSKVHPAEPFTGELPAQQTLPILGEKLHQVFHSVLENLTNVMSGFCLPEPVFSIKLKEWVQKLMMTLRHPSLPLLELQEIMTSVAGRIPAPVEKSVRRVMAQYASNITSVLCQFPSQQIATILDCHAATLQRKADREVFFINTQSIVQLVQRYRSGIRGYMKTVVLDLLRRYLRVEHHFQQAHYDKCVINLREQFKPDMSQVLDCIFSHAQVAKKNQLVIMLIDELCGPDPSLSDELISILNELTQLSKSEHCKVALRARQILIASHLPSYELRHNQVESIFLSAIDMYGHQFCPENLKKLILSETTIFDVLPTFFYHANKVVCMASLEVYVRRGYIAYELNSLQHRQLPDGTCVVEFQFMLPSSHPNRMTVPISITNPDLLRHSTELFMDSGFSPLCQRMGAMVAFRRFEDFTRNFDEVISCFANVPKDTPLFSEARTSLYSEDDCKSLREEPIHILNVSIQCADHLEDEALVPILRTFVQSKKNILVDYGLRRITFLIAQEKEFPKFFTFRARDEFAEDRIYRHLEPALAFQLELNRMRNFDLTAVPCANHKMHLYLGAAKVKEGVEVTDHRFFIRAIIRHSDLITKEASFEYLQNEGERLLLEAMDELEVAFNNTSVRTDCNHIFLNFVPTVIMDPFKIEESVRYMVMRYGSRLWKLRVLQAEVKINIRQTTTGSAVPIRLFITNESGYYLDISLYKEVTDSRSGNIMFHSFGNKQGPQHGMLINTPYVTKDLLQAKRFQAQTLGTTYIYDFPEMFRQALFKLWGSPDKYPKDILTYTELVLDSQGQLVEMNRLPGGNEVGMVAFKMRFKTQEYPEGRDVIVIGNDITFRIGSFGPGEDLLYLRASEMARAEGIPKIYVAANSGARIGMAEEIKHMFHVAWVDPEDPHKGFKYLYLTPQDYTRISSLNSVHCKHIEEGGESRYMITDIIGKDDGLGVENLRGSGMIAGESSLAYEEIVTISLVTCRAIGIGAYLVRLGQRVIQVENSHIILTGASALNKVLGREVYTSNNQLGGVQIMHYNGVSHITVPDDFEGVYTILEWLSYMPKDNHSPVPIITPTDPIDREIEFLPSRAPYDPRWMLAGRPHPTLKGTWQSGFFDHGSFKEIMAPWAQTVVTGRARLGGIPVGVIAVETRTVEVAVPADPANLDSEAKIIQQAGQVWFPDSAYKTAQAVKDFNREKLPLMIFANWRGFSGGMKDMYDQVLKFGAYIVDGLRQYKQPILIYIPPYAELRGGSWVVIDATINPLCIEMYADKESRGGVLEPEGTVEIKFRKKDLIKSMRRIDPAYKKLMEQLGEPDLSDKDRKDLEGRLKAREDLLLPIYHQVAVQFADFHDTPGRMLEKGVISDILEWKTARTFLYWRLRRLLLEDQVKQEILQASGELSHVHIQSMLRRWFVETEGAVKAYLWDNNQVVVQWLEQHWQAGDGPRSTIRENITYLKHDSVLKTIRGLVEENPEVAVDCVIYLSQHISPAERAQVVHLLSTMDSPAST
compound,measurement,setting,value
"COC[C@H]1CC[C@]2(CC1)NC(=O)C(c1cc(-c3ccc(Cl)c(F)c3)ccc1C)=C2O [V.4-b, (5s,8s)-3-(4′-Chloro-3′-fluoro-4-methylbiphenyl-3-yl)-4-hydroxy-8-(methoxymethyl)-1-azaspiro[4.5]dec-3-en-2-one]",pIC50,,5.95
"CO[C@]1(C)CC[C@]2(CC1)NC(=O)C(c1cc(-c3ccc(Cl)cc3)ccc1C)=C2O [Example V.1-a, (5r,8r)-3-(4′-Chloro-4-methylbiphenyl-3-yl)-4-hydroxy-8-methoxy-8-methyl-1-azaspiro[4.5]dec-3-en-2-one]",pIC50,,5.50 and 5.41 and 5.34 and 5.60 and 5.63 and 5.47 and 5.56 and 5.69 and 5.54 and 5.48 and 5.29 and 5.28
same,pIC50,listed as V.3-a,5.50 and 5.41 and 5.34 and 5.60 and 5.63 and 5.47 and 5.56 and 5.69 and 5.54 and 5.48 and 5.29 and 5.28
"COC[C@]1(OC)CC[C@@]2(CC1)NC(=O)C(c1cc(-c3ccc(Cl)cc3)ccc1C)=C2O [Example 1-3, (5r,8r)-3-(4′-Chloro-4-methylbiphenyl-3-yl)-4-hydroxy-8-methoxy-8-(methoxymethyl)-1-azaspiro[4.5]dec-3-en-2-one]",pIC50,,5.09 and 5.18
"CO[C@]1(C)CC[C@]2(CC1)NC(=O)C(c1cc(-c3ccc(Cl)c(F)c3)ccc1C)=C2O [Example V.2-a, (5r,8r)-3-(4′-Chloro-3′-fluoro-4-methylbiphenyl-3-yl)-4-hydroxy-8-methoxy-8-methyl-1-azaspiro[4.5]dec-3-en-2-one]",pIC50,,5.02 and 5.04 and 5.30 and 5.24 and 5.06 and 5.11 and 5.40 and 5.67 and 5.54
same,pIC50,listed as V.4-a,5.02 and 5.04 and 5.30 and 5.24 and 5.06 and 5.11 and 5.40 and 5.67 and 5.54
